Reference: patent US4017595A (Research Corporation, priority 1975, dated 1977)

Test: Organ distribution of Indium-113m EDTMP and DTPMP complexes in rabbits, simultaneous study with Strontium-85
Type: in vivo, adult albino rabbits
Conditions: DTPMP group; for % Dose/1% Bodyweight, Average Bone: mean of femur, tibia, spine and pelvis; for % Dose in Whole Organ, Blood / % Dose in Whole Organ, Kidney / % Dose in Whole Organ, Liver / % Dose in Whole Organ, Marrow / % Dose in Whole Organ, Muscle / % Dose in Whole Organ, One Femur / % Dose in Whole Organ, One Tibia / % Dose in Whole Organ, Urine / % Dose/1% Bodyweight, Blood / % Dose/1% Bodyweight, Femur / % Dose/1% Bodyweight, Kidney / % Dose/1% Bodyweight, Liver / % Dose/1% Bodyweight, Marrow / % Dose/1% Bodyweight, Muscle / % Dose/1% Bodyweight, Pelvis / % Dose/1% Bodyweight, Spine / % Dose/1% Bodyweight, Tibia / Ratio Bone/Blood / Ratio Bone/Marrow / Ratio Bone/Muscle: rabbit i.v.
Experimental: 0.5-1.0 mCi of the complexes prepared according to Examples 1 and 4 (containing 2-5 mg of the phosphonate complex) were injected intravenously into adult albino rabbits weighing 3.5-5 kg. […] Organ distribution characteristics of these compositions were determined after sacrificing the animals 1-4 hours after injection using the method described in Perez et al, J. Nucl. Med. 13:788-789, 1972; Subramanian et al, Radiology, 98:192-196, 1971; Subramanian et al, Radiology, 102:701-704, 1972; Subramanian et al, J. Nucl. Med., 13:947-950, 1972; Tofe et al, J. Nucl. Med., 15:69-74, 1974; Yano, J. Nucl Med., 14:73-78, 1973; Castronova et al, J. Nucl. Med., 13:823-827, 1972; and Subramanian et al, J. Nucl. Med., August, 1975 (U.S. application Ser. No. 368,473, filed June 11, 1973). Appropriate corrections were made for Strontium-85 contributions in the Indium-113m windows.
For each time interval 3 animals were used and average values are set forth. The average bone concentrations expressed as % dose/1% body weight: […]
% dose/1% body weight [formula] are the mean of the concentrations in bone samples from femur, tibia, spine and pelvis. This value was calculated for individual rabbits and the mean value of these averages are shown. The values for ratios were calculated in a similar manner.
With respect to Table 1, Strontium 85 was employed as a biological standard to compare the uptake in various organs of individual groups of animals. In quantifying the bone uptake, it is necessary to compare more than merely the indium concentration from one group to another. In addition, the ratios of indium to strontium from each group should be compared because of the individual variation of bone uptake in animals.

Q: Which “% Dose/1% Bodyweight, Average Bone” value (1 Hr.) does the source give for `O=P(O)(O)CN(CCN(CP(=O)(O)O)CP(=O)(O)O)CCN(CP(=O)(O)O)CP(=O)(O)O` [DTPMP, diethylene triamine penta(methylene phosphonic) acid] here?
A: 5.14 % Dose/1% Bodyweight

Q: And the “% Dose in Whole Organ, Blood” value (1 Hr.)?
A: 8.61 % Dose

Q: What about the “% Dose in Whole Organ, Kidney” value (1 Hr.) of the same compound?
A: 2.43 % Dose

Q: What about the “% Dose in Whole Organ, Liver” value (1 Hr.) of the same compound?
A: 0.702 % Dose

Q: What about the “% Dose in Whole Organ, Marrow” value (1 Hr.) of the same compound?
A: 0.710 % Dose

Q: What about the “% Dose in Whole Organ, Muscle” value (1 Hr.) of the same compound?
A: 4.61 % Dose

Q: And the “% Dose in Whole Organ, One Femur” value (1 Hr.)?
A: 0.782 % Dose

Q: What about the “% Dose in Whole Organ, One Tibia” value (1 Hr.) of the same compound?
A: 0.641 % Dose

Q: And the “% Dose in Whole Organ, Urine” value (1 Hr.)?
A: 31.2 % Dose

Q: What about the “% Dose/1% Bodyweight, Blood” value (1 Hr.) of the same compound?
A: 1.23 % Dose/1% Bodyweight

Q: What about the “% Dose/1% Bodyweight, Femur” value (1 Hr.) of the same compound?
A: 3.57 % Dose/1% Bodyweight

Q: And the “% Dose/1% Bodyweight, Kidney” value (1 Hr.)?
A: 5.62 % Dose/1% Bodyweight

Q: What about the “% Dose/1% Bodyweight, Liver” value (1 Hr.) of the same compound?
A: 0.276 % Dose/1% Bodyweight

Q: And the “% Dose/1% Bodyweight, Marrow” value (1 Hr.)?
A: 0.322 % Dose/1% Bodyweight

Q: What about the “% Dose/1% Bodyweight, Muscle” value (1 Hr.) of the same compound?
A: 0.107 % Dose/1% Bodyweight

Q: And the “% Dose/1% Bodyweight, Pelvis” value (1 Hr.)?
A: 7.15 % Dose/1% Bodyweight

Q: What about the “% Dose/1% Bodyweight, Spine” value (1 Hr.) of the same compound?
A: 4.80 % Dose/1% Bodyweight

Q: What about the “% Dose/1% Bodyweight, Tibia” value (1 Hr.) of the same compound?
A: 3.39 % Dose/1% Bodyweight

Q: What about the “Ratio Bone/Blood” value (1 Hr.) of the same compound?
A: 4.17

Q: What about the “Ratio Bone/Marrow” value (1 Hr.) of the same compound?
A: 15.9

Q: What about the “Ratio Bone/Muscle” value (1 Hr.) of the same compound?
A: 48.0

Q: And the “% Dose/1% Bodyweight, Average Bone” value (2 Hr.)?
A: 4.58 % Dose/1% Bodyweight

Q: What about the “% Dose in Whole Organ, Blood” value (2 Hr.) of the same compound?
A: 3.88 % Dose

Q: And the “% Dose in Whole Organ, Kidney” value (2 Hr.)?
A: 1.09 % Dose

Q: What about the “% Dose in Whole Organ, Liver” value (2 Hr.) of the same compound?
A: 0.453 % Dose

Q: And the “% Dose in Whole Organ, Marrow” value (2 Hr.)?
A: 0.340 % Dose

Q: What about the “% Dose in Whole Organ, Muscle” value (2 Hr.) of the same compound?
A: 1.92 % Dose

Q: What about the “% Dose in Whole Organ, One Femur” value (2 Hr.) of the same compound?
A: 0.648 % Dose

Q: What about the “% Dose in Whole Organ, One Tibia” value (2 Hr.) of the same compound?
A: 0.519 % Dose

Q: What about the “% Dose in Whole Organ, Urine” value (2 Hr.) of the same compound?
A: 65.7 % Dose

Q: And the “% Dose/1% Bodyweight, Blood” value (2 Hr.)?
A: 0.555 % Dose/1% Bodyweight

Q: What about the “% Dose/1% Bodyweight, Femur” value (2 Hr.) of the same compound?
A: 3.07 % Dose/1% Bodyweight

Q: And the “% Dose/1% Bodyweight, Kidney” value (2 Hr.)?
A: 2.40 % Dose/1% Bodyweight

Q: And the “% Dose/1% Bodyweight, Liver” value (2 Hr.)?
A: 0.173 % Dose/1% Bodyweight

Q: What about the “% Dose/1% Bodyweight, Marrow” value (2 Hr.) of the same compound?
A: 0.154 % Dose/1% Bodyweight

Q: And the “% Dose/1% Bodyweight, Muscle” value (2 Hr.)?
A: 0.044 % Dose/1% Bodyweight

Q: What about the “% Dose/1% Bodyweight, Pelvis” value (2 Hr.) of the same compound?
A: 6.15 % Dose/1% Bodyweight

Q: What about the “% Dose/1% Bodyweight, Spine” value (2 Hr.) of the same compound?
A: 4.59 % Dose/1% Bodyweight

Q: What about the “% Dose/1% Bodyweight, Tibia” value (2 Hr.) of the same compound?
A: 2.92 % Dose/1% Bodyweight

Q: And the “Ratio Bone/Blood” value (2 Hr.)?
A: 8.25

Q: What about the “Ratio Bone/Marrow” value (2 Hr.) of the same compound?
A: 29.7

Q: What about the “Ratio Bone/Muscle” value (2 Hr.) of the same compound?
A: 104

Q: What about the “% Dose/1% Bodyweight, Average Bone” value (4 Hr.) of the same compound?
A: 4.79 % Dose/1% Bodyweight

Q: What about the “% Dose in Whole Organ, Blood” value (4 Hr.) of the same compound?
A: 3.08 % Dose

Q: And the “% Dose in Whole Organ, Kidney” value (4 Hr.)?
A: 1.03 % Dose

Q: What about the “% Dose in Whole Organ, Liver” value (4 Hr.) of the same compound?
A: 0.354 % Dose

Q: What about the “% Dose in Whole Organ, Marrow” value (4 Hr.) of the same compound?
A: 0.432 % Dose

Q: And the “% Dose in Whole Organ, Muscle” value (4 Hr.)?
A: 1.92 % Dose

Q: And the “% Dose in Whole Organ, One Femur” value (4 Hr.)?
A: 0.621 % Dose

Q: And the “% Dose in Whole Organ, One Tibia” value (4 Hr.)?
A: 0.471 % Dose

Q: And the “% Dose in Whole Organ, Urine” value (4 Hr.)?
A: 69.9 % Dose

Q: What about the “% Dose/1% Bodyweight, Blood” value (4 Hr.) of the same compound?
A: 0.441 % Dose/1% Bodyweight

Q: And the “% Dose/1% Bodyweight, Femur” value (4 Hr.)?
A: 2.97 % Dose/1% Bodyweight

Q: What about the “% Dose/1% Bodyweight, Kidney” value (4 Hr.) of the same compound?
A: 2.28 % Dose/1% Bodyweight

Q: What about the “% Dose/1% Bodyweight, Liver” value (4 Hr.) of the same compound?
A: 0.184 % Dose/1% Bodyweight

Q: What about the “% Dose/1% Bodyweight, Marrow” value (4 Hr.) of the same compound?
A: 0.196 % Dose/1% Bodyweight

Q: And the “% Dose/1% Bodyweight, Muscle” value (4 Hr.)?
A: 0.044 % Dose/1% Bodyweight

Q: And the “% Dose/1% Bodyweight, Pelvis” value (4 Hr.)?
A: 6.37 % Dose/1% Bodyweight

Q: What about the “% Dose/1% Bodyweight, Spine” value (4 Hr.) of the same compound?
A: 5.16 % Dose/1% Bodyweight

Q: And the “% Dose/1% Bodyweight, Tibia” value (4 Hr.)?
A: 2.76 % Dose/1% Bodyweight

Q: And the “Ratio Bone/Blood” value (4 Hr.)?
A: 10.8

Q: What about the “Ratio Bone/Marrow” value (4 Hr.) of the same compound?
A: 24.4

Q: And the “Ratio Bone/Muscle” value (4 Hr.)?
A: 108
